Patent US20220298138A1, “ENZYME INHIBITORS” (KALVISTA PHARMACEUTICALS LIMITED, priority 2019, published 2022)
Like-named read-outs stand apart in the source and are kept apart here.

Target: T1, Human Factor XIIa (Homo sapiens, UniProt P00748)
T1 construct: purchased Enzyme Research Laboratories
T1 sequence (P00748 373-615 limits assumed): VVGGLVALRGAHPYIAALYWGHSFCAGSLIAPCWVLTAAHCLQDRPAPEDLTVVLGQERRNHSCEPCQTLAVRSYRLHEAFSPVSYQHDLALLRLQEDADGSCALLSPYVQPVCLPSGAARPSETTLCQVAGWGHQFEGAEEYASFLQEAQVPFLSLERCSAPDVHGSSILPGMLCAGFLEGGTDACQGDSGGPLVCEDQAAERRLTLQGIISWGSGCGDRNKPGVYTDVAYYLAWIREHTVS
Assay: Factor XIIa inhibitory activity in vitro (fluorogenic substrate H-DPro-Phe-Arg-AFC)
Format: biochemical
Conditions: 25° C., read-out: Human FXIIa IC50
Protocol: Determination of the % Inhibition for FXIIa
Human Factor XIIa (Enzyme Research Laboratories) was incubated at 25° C. with the fluorogenic substrate H-DPro-Phe-Arg-AFC and various concentrations of the test compound. Residual enzyme activity (initial rate of reaction) was determined by measuring the change in […] at 410 nm and the IC50 value for the test compound was determined.

SMILES | IC50 (class symbols) | IC50 (numeric bound instead of class symbol)
C[C@@H]1CCC[C@H](C)N1C(=O)N[C@H](CC(=O)NCc1ccc2c(N)nccc2c1)Cc1ccccc1 [Example 39.07] | 10 to 40 µM | –
Nc1nccc2cc(CNC(=O)[C@H](Cc3ccc(F)c(F)c3)NC(=O)c3ccno3)ccc12 [Example 0.30] | 10 to 40 µM | –
Cn1ccc(C(=O)N[C@@H](Cc2ccc(F)c(F)c2)C(=O)NCc2ccc3c(N)nccc3c2)n1 [Example 0.17] | 10 to 40 µM | –
CC[C@H](NC(=O)[C@@H](CCc1ccccc1)NC(=O)OC(C)(C)C)C(=O)NCc1ccc2c(N)nccc2c1 [Example 6.04] | 10 to 40 µM | –
CC1CCCC(C)N1CC(=O)N[C@@H](Cc1ccc(F)c(F)c1)C(=O)NCc1ccnc(N)c1 (stereo partly shown) [Example 3.102] | 10 to 40 µM | –
Nc1nccc2cc(CNC(=O)[C@H](Cc3ccc(F)c(F)c3)NC(=O)Cc3nc(-c4cccnc4)n[nH]3)ccc12 [Example 3.32] | 10 to 40 µM | –
Nc1nccc2cc(CNC(=O)[C@H](Cc3ccc(F)c(F)c3)NC(=O)c3nc4ccccc4[nH]c3=O)ccc12 [Example 0.74] | 10 to 40 µM | –
COc1cnccc1C(=O)N[C@@H](Cc1ccc(F)c(F)c1)C(=O)NCc1ccc2c(N)nccc2c1 [Example 0.84] | 10 to 40 µM | –
CN1CCN(CC(=O)N[C@@H](Cc2ccc(F)c(F)c2)C(=O)NCc2ccc3c(N)nccc3c2)CC1 [Example 3.40] | 10 to 40 µM | –
Nc1nccc2cc(CNC(=O)[C@H](Cc3ccc(F)c(F)c3)NC(=O)c3ccc4cnccc4c3)ccc12 [Example 0.28] | 10 to 40 µM | –
C[C@H](NC(=O)[C@@H](CCc1ccccc1)NS(C)(=O)=O)C(=O)NCc1ccc2[nH]cc(Cl)c2c1 [Example 9.16] | 10 to 40 µM | –
CC(C)N1CCC[C@@H]1C(=O)N[C@@H](Cc1ccc(F)c(F)c1)C(=O)NCc1cccc2[nH]ccc12 [Example 44.03] | 10 to 40 µM | –
CC(C)c1nc(C(=O)N[C@@H](Cc2ccc(F)c(F)c2)C(=O)NCc2ccc3c(N)nccc3c2)cs1 [Example 0.91] | 10 to 40 µM | –
C[C@@H]1CCC[C@H](C)N1CC(=O)N1CC[C@H](C(=O)NCc2ccc3c(N)nccc3c2)C1 [Example 32.06] | 10 to 40 µM | –
CC(OCc1ccccc1)[C@H](NC(=O)CN1[C@H](C)CCC[C@@H]1C)C(=O)NCc1ccc2c(N)nccc2c1 (stereo partly shown) [Example 39.05] | 3 to 10 µM | –
Nc1nccc2cc(CNC(=O)[C@H](Cc3ccc(F)c(F)c3)NC(=O)c3cc(F)cc(F)c3)ccc12 [Example 0.73] | 10 to 40 µM | –
Nc1nccc2cc(CNC(=O)[C@H](Cc3ccc(F)c(F)c3)NC(=O)CN3CCCC3=O)ccc12 [Example 3.37] | 10 to 40 µM | –
COc1ccc(CNC(=O)[C@H](C)NC(=O)[C@@H](CCc2ccccc2)NC(C)C)cc1Cl [Example 9.11] | 10 to 40 µM | –
C[C@@H]1CCC[C@H](C)N1CC(=O)N[C@@H](Cc1ccc(F)c(F)c1)C(=O)NCc1ccc2[nH]ccc2c1 [Example 34.05] | 10 to 40 µM | –
CC(C)n1nnc2cc(C(=O)N[C@@H](Cc3ccc(F)c(F)c3)C(=O)NCc3ccc4c(N)nccc4c3)ccc21 [Example 0.38] | 10 to 40 µM | –
Cc1ccc(CN(C)CC(=O)N[C@@H](Cc2ccc(F)c(F)c2)C(=O)NCc2ccc3c(N)nccc3c2)cc1 [Example 3.27] | 10 to 40 µM | –
Nc1nccc2cc(CNC(=O)[C@H](Cc3ccc(F)c(F)c3)NC(=O)c3ccco3)ccc12 [Example 0.78] | 3 to 10 µM | –

SMILES | IC50 (class symbols) | IC50 (numeric bound instead of class symbol)
CCCc1cc(C(=O)N[C@@H](Cc2ccc(F)c(F)c2)C(=O)NCc2ccc3c(N)nccc3c2)nn1C [Example 0.79] | 3 to 10 µM | –
CC(C)N1CCC[C@@H]1C(=O)N[C@@H](Cc1ccc(F)c(F)c1)C(=O)NCc1ccc2[nH]ncc2c1 [Example 44.05] | 10 to 40 µM | –
Cc1nc2ccccn2c1C(=O)N[C@@H](Cc1ccc(F)c(F)c1)C(=O)NCc1ccc2c(N)nccc2c1 [Example 0.53] | 10 to 40 µM | –
N#Cc1ccc(CS(=O)(=O)N[C@@H](Cc2ccc(F)c(F)c2)C(=O)NCc2ccc3c(N)nccc3c2)cc1 [Example 55.04] | 10 to 40 µM | –
CC(C)c1cc(C(=O)N[C@@H](Cc2ccc(F)c(F)c2)C(=O)NCc2ccc3c(N)nccc3c2)no1 [Example 0.75] | 3 to 10 µM | –
Cn1cc(C(=O)N[C@@H](Cc2ccc(F)c(F)c2)C(=O)NCc2ccc3c(N)nccc3c2)ccc1=O [Example 0.52] | 3 to 10 µM | –
Nc1nccc2cc(CNC(=O)[C@H](Cc3ccc(F)c(F)c3)NC(=O)c3ccc4c(c3)CC=C(O)N4)ccc12 [Example 0.76] | 10 to 40 µM | –
Cc1ccnn1-c1ccc(C(=O)N[C@@H](Cc2ccc(F)c(F)c2)C(=O)NCc2ccc3c(N)nccc3c2)cc1 [Example 0.83] | – | > 12.7 µM
CN1CCN(c2cccc(C(=O)N[C@@H](Cc3ccc(F)c(F)c3)C(=O)NCc3ccc4c(N)nccc4c3)c2)CC1 [Example 0.08] | 3 to 10 µM | –
C[C@@H]1CCC[C@H](C)N1CC(=O)N1c2ccccc2C[C@H]1C(=O)NCc1ccc2c(N)nccc2c1 [Example 32.04] | 10 to 40 µM | –
Nc1nccc2cc(CNC(=O)[C@H](Cc3ccc(F)c(F)c3)NC(=O)CN3CCOCC3)ccc12 [Example 3.07] | 10 to 40 µM | –
Nc1nccc2cc(CNC(=O)[C@H](Cc3ccc(F)c(F)c3)NC(=O)C3(C(F)(F)F)CC3)ccc12 [Example 0.72] | 10 to 40 µM | –
CN[C@H](CCc1ccccc1)C(=O)N[C@@H](Cc1ccccc1)C(=O)NCc1ccc2c(N)nccc2c1 [Example 6.08] | 3 to 10 µM | –
Nc1nccc2cc(CNC(=O)[C@H](Cc3ccc(F)c(F)c3)NC(=O)CCCOCc3ccccc3)ccc12 [Example 0.24] | 10 to 40 µM | –
Nc1nccc2cc(CNC(=O)[C@H](Cc3ccc(F)c(F)c3)NC(=O)CCNC(=O)c3ccc(F)cc3)ccc12 [Example 20.09] | 10 to 40 µM | –
C[C@@H]1CCC[C@H](C)N1CC(=O)NCC(=O)NCc1ccc2c(N)nccc2c1 [Example 39.03] | 10 to 40 µM | –
Nc1nccc2cc(CNC(=O)[C@@H](N)Cc3csc4ccccc34)ccc12 [Example 24.01] | 10 to 40 µM | –
Nc1nccc2cc(CNC(=O)[C@H](Cc3ccc(F)c(F)c3)NC(=O)c3cn[nH]c3)ccc12 [Example 0.65] | 10 to 40 µM | –
C[C@H](NC(=O)[C@@H](CCc1ccccc1)NCC(C)(C)C)C(=O)NCc1cnc2[nH]cc(Cl)c2c1 [Example 9.26] | 3 to 10 µM | –
CC(C)N[C@H](CCc1ccccc1)C(=O)N[C@@H](C)C(=O)NCc1cc2c(Cl)cccc2s1 [Example 9.23] | 10 to 40 µM | –
Nc1nccc2cc(CNC(=O)[C@H](Cc3ccc(F)c(F)c3)NC(=O)c3cc4ccccc4o3)ccc12 [Example 0.48] | 10 to 40 µM | –

The next lines start with the values.

IC50 (class symbols) | IC50 (numeric bound instead of class symbol) | SMILES
3 to 10 µM | – | Nc1nccc2cc(CNC(=O)[C@H](Cc3ccc(F)c(F)c3)NC(=O)c3ccnnc3)ccc12 [Example 0.16]
3 to 10 µM | – | Cc1cc(C)c(C(=O)N[C@@H](Cc2ccc(F)c(F)c2)C(=O)NCc2ccc3c(N)nccc3c2)[nH]1 [Example 0.01]
0.28 to 1 µM | – | CC(C)N(C)[C@H](C)C(=O)N[C@@H](Cc1ccc(F)c(F)c1)C(=O)NCc1ccc2c(N)nccc2c1 [Example 5.102]
3 to 10 µM | – | CN1CCC(C(=O)N[C@@H](Cc2ccc(F)c(F)c2)C(=O)NCc2ccc3c(N)nccc3c2)CC1 [Example 0.43]
3 to 10 µM | – | C[C@@H]1CCC[C@H](C)N1CC(=O)N[C@@H](CC1CCCCC1)C(=O)NCc1ccc2c(N)nccc2c1 [Example 3.16]
3 to 10 µM | – | C[C@@H]1CCC[C@H](C)N1CC(=O)N[C@@H](Cc1ccc(F)c(F)c1)C(=O)NCc1cccc2[nH]ccc12 [Example 34.03]
3 to 10 µM | – | C[C@@H]1CCC[C@H](C)N1[C@@H](C)C(=O)N[C@@H](Cc1ccc(F)c(F)c1)C(=O)NCc1ccc2c(N)nccc2c1 [Example 5.106]
1 to 3 µM | – | Cc1ccc(C)c(S(=O)(=O)NCC(=O)N[C@@H](Cc2ccc(F)c(F)c2)C(=O)NCc2ccc3c(N)nccc3c2)c1 [Example 55.05]
3 to 10 µM | – | COc1cc(C(=O)N[C@@H](Cc2ccc(F)c(F)c2)C(=O)NCc2ccc3c(N)nccc3c2)ccc1F [Example 0.58]
3 to 10 µM | – | COc1cc(C(=O)N[C@@H](Cc2ccc(F)c(F)c2)C(=O)NCc2ccc3c(N)nccc3c2)on1 [Example 0.32]
1 to 3 µM | – | C[C@@H]1CCC[C@H](C)N1CC(=O)N1CCCC[C@H]1C(=O)NCc1ccc2c(N)nccc2c1 [Example 32.03]
1 to 3 µM | – | Nc1nccc2cc(CNC(=O)[C@H](Cc3ccc(F)c(F)c3)NC(=O)c3cccc(O)n3)ccc12 [Example 0.57]
0.1 to 0.279 µM | – | C[C@@H]1CCC[C@H](C)N1CC(=O)N[C@@H](Cc1ccc(F)cc1)C(=O)NCc1ccc2c(N)nccc2c1 [Example 3.14]
1 to 3 µM | – | CC1CCCC(C)N1CC(=O)N[C@@H](Cc1ccccc1Cl)C(=O)NCc1ccc2c(N)nccc2c1 (stereo partly shown) [Example 3.05]
1 to 3 µM | – | Nc1nccc2cc(CNC(=O)[C@H](Cc3ccc(F)c(F)c3)NC(=O)CN3CCCC3)ccc12 [Example 3.41]
1 to 3 µM | – | C[C@H](NC(=O)[C@@H](CCc1ccccc1)NCc1ccccc1)C(=O)NCc1ccc2[nH]cc(Cl)c2c1 [Example 9.25]
0.28 to 1 µM | – | C[C@H](NC(=O)[C@@H](CCc1ccccc1)NCC(C)(C)C)C(=O)NCc1ccc2[nH]cc(Cl)c2c1 [Example 9.18]
0.1 to 0.279 µM | – | CC(C)N1CCCC[C@@H]1C(=O)N[C@@H](Cc1ccc(F)c(F)c1)C(=O)NCc1ccc2c(N)nccc2c1 [Example 0.02]
1 to 3 µM | – | Nc1nccc2cc(CNC(=O)[C@H](Cc3ccc(F)c(F)c3)NC(=O)c3ccn4ncnc4n3)ccc12 [Example 0.93]
1 to 3 µM | – | CC[C@H](NC(=O)[C@H](N)CCc1ccccc1)C(=O)NCc1ccc2c(N)nccc2c1 [Example 6.05]
1 to 3 µM | – | Nc1nccc2cc(CNC(=O)[C@H](Cc3ccc(F)c(F)c3)NC(=O)CN3CCCCCC3)ccc12 [Example 3.38]
